Experimental data as given in patent US7186840B2, “Quinoline derivatives as anti-inflammatory agents” (Roche Palo Alto LLC, priority 2000, dated 2007).

Columns and labels:
[1] = molecular target: T1, COX I (Homo sapiens, UniProt P23219); assay: Inhibition of COX I in vitro (radiometric assay); type: biochemical; details: partially purified enzyme, 10 min preincubation, 20 micromolar [14C]arachidonic acid
T1 construct: made in house
Method: (§1) The COX I and COX II inhibitory activity of compounds of this invention in vitro was determined using partially purified COX I and COX II enzymes, prepared as described in J. Barnett et. al., Biochim Biophys. Acta, 1209, 130–139 (1994).
(§2) COX I and COX II samples were diluted with Tris-HCl buffer (50 mM Tris-HCl, pH 7.9) containing 2 mM EDTA and 10% glycerol and reconstituted by incubating first with 2 mM phenol for 5 minutes and then with 1 micromolar hematin for an additional 5 minutes. 125 μl of the reconstituted COX I or COX II enzyme were preincubated for 10 minutes at room temperature in a shaking water bath with the compounds of the invention dissolved in 2–15 μl of DMSO or the carrier vehicles (control samples). The enzyme reaction was initiated by adding 25 μl of 1-[14 C]arachidonic acid (80,000–100,000 cpm/tube; 20 micromolar final concentration) and the reaction was allowed to continue for an additional 45 seconds. The reaction was terminated by adding 100 μl of 2N HCl and 750 μl water. An aliquot (950 μl) of the reaction mixture was loaded onto a 1 mL C18 Sep-Pak column (J. T. Baker, Phillipsburg, N.J.) which had been previously washed with 2–3 mL methanol and equilibrated with 5–6 mL distilled water. Oxygenated products were quantitatively eluted with 3 mL of acetonitrile/water/acetic acid (50:50:0.1, v/v) and the radioactivity in the eluate determined in a scintillation counter.
(§3) The COX inhibitory activities (expressed as IC50, the concentration causing 50% inhibition of the COX enzyme being assayed) of some exemplary compounds of the invention were: […]

[2] = molecular target: T2, COX II (Homo sapiens, UniProt P35354); assay: Inhibition of COX II in vitro (radiometric assay); type: biochemical; details: partially purified enzyme, 10 min preincubation, 20 micromolar [14C]arachidonic acid
T2 construct: made in house
T2 sequence (P35354 18-604): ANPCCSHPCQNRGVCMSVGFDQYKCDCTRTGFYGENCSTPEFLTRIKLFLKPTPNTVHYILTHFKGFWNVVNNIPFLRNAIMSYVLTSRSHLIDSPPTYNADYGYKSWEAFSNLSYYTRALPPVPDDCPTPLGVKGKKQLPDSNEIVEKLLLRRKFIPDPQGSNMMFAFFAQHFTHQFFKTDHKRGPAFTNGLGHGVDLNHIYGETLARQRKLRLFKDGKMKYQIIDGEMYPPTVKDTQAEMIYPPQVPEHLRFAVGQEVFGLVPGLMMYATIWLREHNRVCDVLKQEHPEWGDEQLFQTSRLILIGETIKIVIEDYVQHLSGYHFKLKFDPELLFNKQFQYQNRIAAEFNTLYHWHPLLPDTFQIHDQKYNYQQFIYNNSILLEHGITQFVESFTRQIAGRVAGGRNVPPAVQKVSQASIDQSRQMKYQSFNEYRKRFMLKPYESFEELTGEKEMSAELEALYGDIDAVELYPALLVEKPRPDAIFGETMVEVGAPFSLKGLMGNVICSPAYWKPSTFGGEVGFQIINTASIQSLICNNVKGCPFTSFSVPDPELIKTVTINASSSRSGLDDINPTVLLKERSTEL
Method: as §1, §2, §3

T1 sequence (P23219 24-599): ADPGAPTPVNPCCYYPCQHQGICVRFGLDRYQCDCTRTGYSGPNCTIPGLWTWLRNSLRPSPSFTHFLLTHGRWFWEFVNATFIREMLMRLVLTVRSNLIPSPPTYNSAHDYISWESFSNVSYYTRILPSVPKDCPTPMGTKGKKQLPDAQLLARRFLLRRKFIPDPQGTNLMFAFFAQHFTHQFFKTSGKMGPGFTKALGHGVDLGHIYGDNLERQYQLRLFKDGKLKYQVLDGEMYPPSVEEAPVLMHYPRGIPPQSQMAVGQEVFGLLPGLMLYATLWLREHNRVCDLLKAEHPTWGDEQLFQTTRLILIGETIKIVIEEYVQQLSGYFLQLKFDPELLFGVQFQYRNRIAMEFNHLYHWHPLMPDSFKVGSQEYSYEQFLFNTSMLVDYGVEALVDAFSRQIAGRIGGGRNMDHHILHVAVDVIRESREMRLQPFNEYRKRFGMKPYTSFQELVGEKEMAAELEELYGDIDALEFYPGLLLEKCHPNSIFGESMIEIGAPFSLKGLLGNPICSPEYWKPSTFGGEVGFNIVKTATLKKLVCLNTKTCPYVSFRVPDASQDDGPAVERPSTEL

Row | IC50 [1] [µM] | IC50 [2] [µM] | Compound
1 | > 40 | < 0.2 | COc1ccc2nc(S(C)(=O)=O)ccc2c1Sc1ccc(F)cc1F [Cpd 101, 5-(2,4-Difluoro-phenylsulfanyl)-2-methanesulfonyl-6-methoxy-quinoline]
2 | > 40 | < 0.2 | COc1ccc2nc(S(C)(=O)=O)ccc2c1Sc1ccccc1Cl [Cpd 104, 5-(2-chloro-phenylsulfanyl)-2-methanesulfonyl-6-methoxy-quinoline]
3 | > 40 | < 0.2 | COc1ccc2nc(S(C)(=O)=O)ccc2c1Sc1ccc(F)cc1Cl [Cpd 105, 5-(2-chloro-4-fluoro-phenylsulfanyl)-2-methanesulfonyl-6-methoxy-quinoline]
4 | > 40 | < 0.3 | COc1ccc2nc(S(C)(=O)=O)ccc2c1Sc1ccc(Br)cc1 [Cpd 106, 5-(4-bromo-phenylsulfanyl)-2-methanesulfonyl-6-methoxy-quinoline]
5 | > 40 | < 0.3 | COc1ccc2nc(S(C)(=O)=O)ccc2c1Sc1ccc(Cl)cc1Cl [Cpd 107, 5-(2,4-dichloro-phenylsulfanyl)-2-methanesulfonyl-6-methoxy-quinoline]
